According to US12391648B2, “Pyridyloxy thioester derivative and preparation method therefor, herbicidal composition, and application” (Qingdao Kingagroot Chemical Compound Co., Ltd., priority 2018, dated 2025):

Assays:
Type in all cases: in vivo
[1] = system: Indica rice; assay: Post-emergence test experiment (Table 4), crop safety; conditions: after 3 weeks
Excerpt: (§1) The activity level standard of harmful plants destruction (i. e. growth inhibition rate) is as follows: • Level 5: the growth inhibition rate is greater than 85%; • Level 4: the growth inhibition rate is equal to or greater than 60% and less than 85%; • Level 3: the growth inhibition rate is equal to or greater than 40% and less than 60%; • Level 2: the growth inhibition rate is equal to or greater than 20% and less than 40%; • Level 1: the growth inhibition rate is equal to or greater than 5% and less than 20%; • Level 0: the growth inhibition rate is less than 5%;
(§2) The above described growth inhibition rate is fresh weight inhibition rate.
(§3) Post-emergence test experiment: Monocotyledonous and dicotyledonous weed seeds and main crop seeds (i. e. wheat, corn, rice, soybean, cotton, oilseed, millet and sorghum.) were put into a plastic pot loaded with soil. Then covered with 0.5-2 cm soil, the seeds were allowed to grow in good greenhouse environment. The test plants were treated at 2-3 leaf stage 2 weeks after sowing. The test compounds of the invention were dissolved with acetone respectively, then added with tween-80, and using 1.5 liters per hectare of an emulsible concentrate of methyl oleate as a synergist, and diluted by certain amount of water to certain concentration. The solution was sprayed to the plants with a sprayer. Then the plants were cultured for 3 weeks in the greenhouse, and the experiment result of weed controlling effect after 3 weeks was listed in tables 3-4.
(§4) […] Echinochloa crusgalli and Cyperus iria were collected from Ningxia Hui Autonomous Region of China, which had evolved resistance to ALS inhibiting herbicides. • Control compound A:

[2] = system: Japonica rice; assay: as above; conditions: after 3 weeks
Excerpt: as §1, §2, §3, §4

[3] = system: ALS resistant Cyperus iria; assay: Post-emergence test experiment (Table 4), weed control; conditions: after 3 weeks
Excerpt: as §1, §2, §3, §4

[4] = system: ALS resistant Echinochloa crusgalli; assay: as above; conditions: after 3 weeks
Excerpt: as §1, §2, §3, §4

[5] = system: rice (japonica rice); assay: Transplanted rice safety evaluation; conditions: 1000 g/ha, transplanted 3-leaf stage japonica rice, treated 5 days after transplantation, 21 days after treatment
Excerpt: as §1
(§5) Transplanted rice safety evaluation and weed control effect evaluation in rice field:
In addition, the rice field soil that loaded into the 1/1,000,000 ha pot was leveled to keep water storage at 3-4 cm depth. The 3-leaf stage rice (japonica rice) was transplanted at 3 cm of transplanting depth the next day. The compound of the present invention was treated by the same way after 5 days of transplantation.
(§6) The fertility condition of Monochoria vaginalis 14 days and rice 21 days after the treatment of the compound of the invention with the naked eye.

[6] = system: Monochoria vaginalis; assay: Weed control effect evaluation in rice field; conditions: paddy water application at 0.5 leaf stage, 14 days after treatment, weeds resistant to pyrazosulfuron-ethyl and penoxsulam
Excerpt: as §1, §5
Rice field soil was loaded into a 1/1,000,000 ha pot. The seeds of Monochoria vaginalis were sowed and gently covered with soil, then left to stand still in greenhouse in the state of 0.5-1 cm of water storage. It was kept at 3-4 cm of water storage thereafter. The weeds were treated by dripping the WP or SC water diluents prepared according to the common preparation method of the compounds of the present invention with pipette homogeneously to achieve specified effective amount when Monochoria vaginalis reached 0. 5 leaf stage.
as §6
Note: The seeds of Monochoria vaginalis were collected from Heilongjing Province of China.

[7] = system: Abutilon theophrasti; assay: Post-emergence test experiment (Table 3, 1000 g/ha); conditions: post-emergence spray, after 3 weeks, fresh weight inhibition
Outline: (§7)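 Activity graded levels 0-5 by fresh-weight inhibition (level 5 above 85%, level 0 below 5%), assessed 3 weeks after treatment. Plants grown in greenhouse pots were sprayed post-emergence at 2-3 leaves using acetone/tween-80 solutions with methyl oleate synergist (1.5 L/ha).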

[8] = system: Digitaria sanguinalis; assay: as above; conditions: post-emergence spray, after 3 weeks, fresh weight inhibition
Outline: as §7

[9] = system: Galium spurium; assay: as above; conditions: post-emergence spray, after 3 weeks, fresh weight inhibition
Outline: as §7

[10] = system: Leptochloa chinensis; assay: as above; conditions: post-emergence spray, after 3 weeks, fresh weight inhibition
Outline: as §7

[11] = system: Monochoria vaginalis; assay: as above; conditions: post-emergence spray, after 3 weeks, fresh weight inhibition
Outline: as §7

[12] = system: Setaria viridis; assay: as above; conditions: post-emergence spray, after 3 weeks, fresh weight inhibition
Outline: as §7

[13] = 600 g/ha active ingredient, plus water 450 kg/ha

COc1cc(OC)nc(Oc2cccc(Oc3nc(OC)cc(OC)n3)c2C(=O)O)n1 [Bispyribac-sodium, reference compound]
Indica rice, activity level (growth inhibition rate) ([1]; 100 g/ha): 2 (Level 2: the growth inhibition rate is equal to or greater than 20% and less than 40%) | Japonica rice, activity level (growth inhibition rate) ([2]; 100 g/ha): 4 (Level 4: the growth inhibition rate is equal to or greater than 60% and less than 85%) | ALS resistant Cyperus iria, activity level (growth inhibition rate) ([3]; 100 g/ha): 1 (Level 1: the growth inhibition rate is equal to or greater than 5% and less than 20%) | ALS resistant Echinochloa crusgalli, activity level (growth inhibition rate) ([4]; 100 g/ha): 1 (Level 1: the growth inhibition rate is equal to or greater than 5% and less than 20%)

CSC(=O)C(C)Oc1ncc(Cl)c(N)c1Cl (centres unmarked) [Compound 3]
Indica rice, activity level (growth inhibition rate) [1, 13]: 0 (Level 0: the growth inhibition rate is less than 5%) | Japonica rice, activity level (growth inhibition rate) [2, 13]: 0 (Level 0: the growth inhibition rate is less than 5%) | ALS resistant Cyperus iria, activity level (growth inhibition rate) [3, 13]: 5 (Level 5: the growth inhibition rate is greater than 85%) | ALS resistant Echinochloa crusgalli, activity level (growth inhibition rate) [4, 13]: 5 (Level 5: the growth inhibition rate is greater than 85%) | Rice, activity standard level 0-5 (safety) [5]: 0 (Level 0: the growth inhibition rate is less than 5%) | Monochoria Vaginalis, activity standard level 0-5 ([6]; 1000 g/ha): 5 (Level 5: the growth inhibition rate is greater than 85%) | Activity level (growth inhibition rate) Abutilon theophrasti [7]: 5 (Level 5: the growth inhibition rate is greater than 85%) | Activity level (growth inhibition rate) Digitaria sanguinalis [8]: 5 (Level 5: the growth inhibition rate is greater than 85%) | Activity level (growth inhibition rate) Galium spurium [9]: 5 (Level 5: the growth inhibition rate is greater than 85%) | Activity level (growth inhibition rate) Leptochloa chinensis [10]: 5 (Level 5: the growth inhibition rate is greater than 85%) | Activity level (growth inhibition rate) Monochoria Vaginalis [11]: 5 (Level 5: the growth inhibition rate is greater than 85%) | Activity level (growth inhibition rate) Setaria viridis [12]: 5 (Level 5: the growth inhibition rate is greater than 85%)

CSC(=O)C(C)Oc1nc(F)c(Cl)c(N)c1Cl (centres unmarked) [Compound 4]
Indica rice, activity level (growth inhibition rate) [1, 13]: 0 (Level 0: the growth inhibition rate is less than 5%) | Japonica rice, activity level (growth inhibition rate) [2, 13]: 0 (Level 0: the growth inhibition rate is less than 5%) | ALS resistant Cyperus iria, activity level (growth inhibition rate) [3, 13]: 5 (Level 5: the growth inhibition rate is greater than 85%) | ALS resistant Echinochloa crusgalli, activity level (growth inhibition rate) [4, 13]: 5 (Level 5: the growth inhibition rate is greater than 85%) | Rice, activity standard level 0-5 (safety) [5]: 0 (Level 0: the growth inhibition rate is less than 5%) | Monochoria Vaginalis, activity standard level 0-5 ([6]; 1000 g/ha): 5 (Level 5: the growth inhibition rate is greater than 85%) | Activity level (growth inhibition rate) Abutilon theophrasti [7]: 5 (Level 5: the growth inhibition rate is greater than 85%) | Activity level (growth inhibition rate) Digitaria sanguinalis [8]: 5 (Level 5: the growth inhibition rate is greater than 85%) | Activity level (growth inhibition rate) Galium spurium [9]: 5 (Level 5: the growth inhibition rate is greater than 85%) | Activity level (growth inhibition rate) Leptochloa chinensis [10]: 5 (Level 5: the growth inhibition rate is greater than 85%) | Activity level (growth inhibition rate) Monochoria Vaginalis [11]: 5 (Level 5: the growth inhibition rate is greater than 85%) | Activity level (growth inhibition rate) Setaria viridis [12]: 5 (Level 5: the growth inhibition rate is greater than 85%)

COc1cnc(OC)n2nc(NS(=O)(=O)c3c(OCC(F)F)cccc3C(F)(F)F)nc12 [Penoxsulam, reference compound]
Monochoria Vaginalis, activity standard level 0-5 ([6]; 50 g/ha): 1 (Level 1: the growth inhibition rate is equal to or greater than 5% and less than 20%)
